Experimental data published in patent US10865196B2, “Compounds for treatment of cancer” (University of Tennessee Research Foundation, priority 2008, dated 2020).
Several values for one entry are separate records, joined by “and”; a condition that tells them apart may be missing. Equal entries are not always repeated. Where two headings read alike, the source gives them in different places.

Legend:
[1] = test system: A375; test: SRB antiproliferation assay, A375 melanoma; format: cell-based, human
Text: (§1) For melanoma assays, one human melanoma cell line (A375) and one mouse melanoma cell line (B16-F1) were used. […] Fibroblast cells were used as a control to determine the selectivity of these compounds against melanoma. Human dermal fibroblast cells were purchased from Cascade Biologics, Inc., Portland, Oreg., USA.

[2] = test system: B16-F1; test: SRB antiproliferation assay, B16-F1 melanoma; format: cell-based, mouse
Text: as §1

[3] = test system: melanoma (A375, B16-F1) and prostate cancer cells (DU145, PC-3, LNCaP, PPC-1); test: SRB assay, range over melanoma and prostate cancer cell lines; format: cell-based; details: for antiproliferative activity against melanoma and prostate cancer cell lines, in words: compared with 8f or parent compounds
Experimental: For melanoma assays, one human melanoma cell line (A375) and one mouse melanoma cell line (B16-F1) were used. […] Fibroblast cells were used as a control to determine the selectivity of these compounds against melanoma. Human dermal fibroblast cells were purchased from Cascade Biologics, Inc., Portland, Oreg., USA. […] Cells were exposed to a wide range of concentrations for 48 h in round-bottomed 96-well plates. […] After cells were air-dried overnight and stained with SRB solution, total proteins were measured at 560 nm with a plate reader.

[4] = test system: PC-3; test: SRB antiproliferation assay, PC-3 prostate cancer; details: read-out: IC50 PC-3, SRB
[5] = test system: PPC-1; test: SRB antiproliferation assay, PPC-1 prostate cancer; details: read-out: IC50 PPC-1, SRB
[6] = test system: LNCaP; test: SRB antiproliferation assay, LNCaP prostate cancer; details: read-out: IC50 LNCaP, SRB
[7] = test system: DU 145; test: SRB antiproliferation assay, DU 145 prostate cancer; details: read-out: IC50 DU 145, SRB
[8] = Homo sapiens, A-375, 48 h, SRB, 48 h, read-out: IC50 A375 (converted)
[9] = Mus musculus, B16-F1, 48 h, SRB, 48 h, read-out: IC50 B16-F1 (converted)
[10] = range over the examined cell lines, read-out: IC50 over melanoma and prostate cancer cell lines
[11] = Homo sapiens, A-375, SRB, read-out: IC50 A375 (converted)
[12] = Mus musculus, B16-F1, SRB, read-out: IC50 B16-F1 (converted)
[13] = Homo sapiens, A-375, read-out: IC50 A375
[14] = Mus musculus, B16-F1, read-out: IC50 B16-F1

COc1cc(NC(=O)[C@@H]2CSC(c3ccccc3)N2)cc(OC)c1OC (mixture of isomers) [2a, (2RS,4R)-2-Phenyl-N-(3,4,5-trimethoxyphenyl)thiazolidine-4-carboxamide]
IC50 [1, 8]: > 100 µM | IC50 [2, 9]: > 100 µM | melting point: 158 to 159 °C | antiproliferative activity against melanoma and prostate cancer cell lines, in words [3]: potency against both cancer cell lines was lost

COc1cc(NC(=O)[C@@H]2CSC(c3cc(OC)c(OC)c(OC)c3)N2)cc(OC)c1OC (mixture of isomers) [2b, (2RS,4R)—N,2-bis(3,4,5-trimethoxyphenyl)thiazolidine-4-carboxamide]
IC50 [1, 8]: > 100 µM | IC50 [2, 9]: > 100 µM | melting point: 147 to 149 °C | antiproliferative activity against melanoma and prostate cancer cell lines, in words [3]: potency against both cancer cell lines was lost

COc1cc(NC(=O)[C@@H]2CSC(c3ccccc3)=N2)cc(OC)c1OC [4a, (4R)-2-Phenyl-N-(3,4,5-trimethoxyphenyl)-4,5-dihydrothiazole-4-carboxamide]
IC50 [1, 8]: 22.8 ± 1.6 µM | IC50 [2, 9]: 38.3 ± 3.2 µM | melting point: 121 to 122 °C and 122 to 123 °C | IC50 [3, 10]: 3.4 to 38.3 µM

COc1cc(NC(=O)[C@@H]2CSC(c3ccccc3)=N2)cc(OC)c1OC [4b, (4R)-2-Phenyl-N-(3,4,5-trimethoxyphenyl)-4,5-dihydrothiazole-4-carboxamide]
IC50 ([1]; SRB, 48 h, listed as 4b(4S), read-out: IC50 A375 (converted)): 13.6 ± 1.2 µM | IC50 ([2]; SRB, 48 h, listed as 4b(4S), read-out: IC50 B16-F1 (converted)): 30.4 ± 2.8 µM | IC50 ([4]; 96 h, listed as 4b(4S)): 13.2 ± 2.1 µM | IC50 ([5]; 96 h, listed as 4b(4S)): 3.4 ± 0.2 µM | IC50 ([6]; 96 h, listed as 4b(4S)): 16.8 ± 1.8 µM

O=C(c1ccccc1)c1csc(-c2ccccc2)n1 [8a, Phenyl (2-phenylthiazol-4-yl)-methanone]
IC50 [1, 8]: > 100 µM | IC50 [2, 9]: > 100 µM | melting point: 65 to 66 °C

COc1ccc(C(=O)c2csc(-c3ccccc3)n2)cc1 [8b, (4-Methoxyphenyl)(2-phenylthiazol-4-yl)-methanone]
IC50 [1, 8]: > 100 µM | IC50 [2, 9]: > 100 µM | melting point: 105 to 106 °C | IC50 [3, 10]: > 20 µM

COc1cccc(C(=O)c2csc(-c3ccccc3)n2)c1 [8c, (3-Methoxyphenyl)(2-phenylthiazol-4-yl)-methanone]
IC50 [1, 8]: > 100 µM | IC50 [2, 9]: > 100 µM | melting point: 43 to 44 °C | IC50 [3, 10]: > 20 µM

COc1ccccc1C(=O)c1csc(-c2ccccc2)n1 [8d, (2-Methoxyphenyl)(2-phenylthiazol-4-yl)-methanone]
IC50 [1, 8]: 70.3 µM | IC50 [2, 9]: 59.4 µM | IC50 [3, 10]: > 20 µM

COc1ccc(C(=O)c2csc(-c3ccccc3)n2)cc1OC [8e, (3,4-Dimethoxyphenyl)(2-phenylthiazol-4-yl)-methanone]
IC50 [1, 8]: > 100 µM | IC50 [2, 9]: > 100 µM | melting point: 89 to 91 °C | IC50 [3, 10]: > 20 µM

COc1cc(OC)cc(C(=O)c2csc(-c3ccccc3)n2)c1 [8g, (3,5-Dimethoxyphenyl)(2-phenylthiazol-4-yl)-methanone]
IC50 [1, 8]: 0.17 µM | IC50 [2, 9]: 0.35 µM | melting point: 84 to 85 °C | IC50 ([3]; average over six cell lines, read-out: average IC50): 0.261 µM | IC50 [3, 10]: 0.17 to 0.424 µM

O=C(c1csc(-c2ccccc2)n1)c1ccccc1F [8h, (2-Fluorophenyl)(2-phenylthiazol-4-yl)-methanone]
IC50 [1, 8]: > 100 µM | IC50 [2, 9]: > 100 µM | melting point: 77 to 79 °C

O=C(c1ccccn1)c1csc(-c2ccccc2)n1 [8i, (2-Phenylthiazol-4-yl)-(pyridin-2-yl)-methanone]
melting point: 95 to 97 °C | antiproliferative activity against melanoma and prostate cancer cell lines, in words [3]: total loss of the anti-cancer activity

CCCCCCCCCCCCCCCCC(=O)c1csc(-c2ccccc2)n1 [8j, 1-(2-Phenylthiazol-4-yl)-heptadecan-1-one]
IC50 [1, 8]: 16 µM | IC50 [2, 9]: 18.6 µM | melting point: 63 to 64 °C

COc1cc(C(=O)c2csc(-c3ccc(C)cc3)n2)cc(OC)c1OC [8k, (2-p-Tolylthiazol-4-yl)-(3,4,5-trimethoxyphenyl)-methanone]
IC50 [4]: 0.005 µM | melting point: 116 to 119 °C | IC50 [3, 10]: 0.005 to 0.021 µM

COc1ccc(-c2nc(C(=O)c3cc(OC)c(OC)c(OC)c3)cs2)cc1OC [8o, [2-(3,4-Dimethoxyphenyl)-thiazol-4-yl]-(3,4,5-trimethoxyphenyl)-methanone]
IC50 [1, 11]: 0.034 µM | IC50 [2, 12]: 0.161 µM | IC50 [4]: 0.069 µM | IC50 [5]: 0.056 µM | IC50 [7]: 0.102 µM | IC50 [6]: 0.038 µM

COc1cc(C(=O)c2csc(-c3ccc([N+](=O)[O-])cc3)n2)cc(OC)c1OC [8p, [2-(4-Nitrophenyl)-thiazol-4-yl]-(3,4,5-trimethoxyphenyl)-methanone]
IC50 [1, 11]: 0.038 µM | IC50 [2, 12]: 0.056 µM | IC50 [4]: 0.056 µM | IC50 [5]: 0.034 µM | IC50 [7]: 0.095 µM | IC50 [6]: 0.039 µM

COc1cc(C(=O)c2csc(-c3ccc(C(=O)O)cc3)n2)cc(OC)c1OC [8r, 4-[4-(3,4,5-Trimethoxybenzoyl)-thiazol-2-yl]-benzoic acid]
melting point: > 220 °C (dec.) | antiproliferative activity against melanoma and prostate cancer cell lines, in words [3]: total loss of the anti-cancer activity

COC(=O)c1ccc(-c2nc(C(=O)c3cc(OC)c(OC)c(OC)c3)cs2)cc1 [8s, Methyl-4-[4-(3,4,5-trimethoxybenzoyl)-thiazol-2-yl]-benzoate]
melting point: 172 to 174 °C | antiproliferative activity against melanoma and prostate cancer cell lines, in words [3]: total loss of potency

COc1cc(C(=O)c2csc(-c3ccc(N)cc3)n2)cc(OC)c1OC [8w, [2-(4-Amino-phenyl)-thiazol-4-yl]-(3,4,5-trimethoxy-phenyl)-methanone]
IC50 [3, 10]: 0.011 to 0.029 µM

COc1cc(C(=O)c2csc(-c3cccs3)n2)cc(OC)c1OC [8z, [2-(Thiophen-2-yl)-thiazol-4-yl]-(3,4,5-trimethoxyphenyl)-methanone]
IC50 [1, 13]: 0.02 ± 0.007 µM | IC50 [2, 14]: 0.038 ± 0.015 µM | IC50 [7]: 0.022 ± 0.001 µM | IC50 [3, 10]: 0.009 to 0.038 µM | IC50 [6]: 0.009 ± 0.001 µM

O=C(c1cc(O)c(O)c(O)c1)c1csc(-c2ccccc2)n1 [11f, (2-Phenyl-thiazol-4-yl)-(3,4,5-trihydroxy-phenyl)-methanone]
antiproliferative activity against melanoma and prostate cancer cell lines, in words [3]: complete loss of antiproliferative activity

O=C(c1ccc(F)cc1)c1csc(-c2ccccc2)n1 [12-12]
IC50 [1, 11]: > 10 µM | IC50 [2, 12]: > 10 µM

O=C(c1ccc(F)cc1)c1csc(-c2ccc(F)cc2)n1 [14-14]
IC50 [1, 11]: > 10 µM | IC50 [2, 12]: > 10 µM

O=C(c1csc(-c2cc(F)c(F)c(F)c2)n1)c1c(F)c(F)c(F)c(F)c1F [16-16]
IC50 [1, 11]: 15.2 µM | IC50 [2, 12]: 6.9 µM

O=C(c1csc(-c2ccccc2)n1)c1c(F)c(F)c(F)c(F)c1F [17-17]
IC50 [1, 11]: 4.3 µM | IC50 [2, 12]: 9.8 µM

CCc1cc(C(=O)c2csc(-c3ccccc3)n2)cc(OC(F)(F)F)c1OC(=O)CCl [18-18]
IC50 [4]: ~10 µM | IC50 [5]: ~10 µM | IC50 [7]: ~10 µM | IC50 [6]: ~10 µM

O=C(c1ccc2c(c1)OCO2)N1CCC(c2ccccc2)CC1 [19-19]
IC50 [1, 11]: > 20 µM | IC50 [2, 12]: > 20 µM

O=C(c1ccc(F)cc1)N1CCC(c2ccccc2)CC1 [22-22]
IC50 [1, 11]: > 20 µM | IC50 [2, 12]: > 20 µM

COc1cc(C(=O)c2csc(-c3ccc(N)cc3)n2)cc(OC)c1OC [26-26]
IC50 [1, 13]: 0.011 µM | IC50 [2, 14]: 0.014 µM

Cc1ccc(-c2nc(C(=O)c3ccc(F)cc3)cn2C(=O)c2ccc(F)cc2)cc1 [29-29]
IC50 [1, 11]: > 10 µM | IC50 [2, 12]: > 10 µM

COc1cc(-c2nc(C(=O)c3ccc(F)cc3)cn2C(=O)c2ccc(F)cc2)cc(OC)c1OC [30-30]
IC50 [1, 11]: > 10 µM | IC50 [2, 12]: > 10 µM

O=C(c1cc(O)c(O)c(O)c1)c1csc(-c2ccccc2)n1 [33-33]
IC50 [1, 11]: 9.8 µM | IC50 [2, 12]: > 20 µM

COc1cc(C(=O)c2csc(-c3ccccc3)n2)cc(OC)c1O [34-34]
IC50 [1, 11]: > 10 µM | IC50 [2, 12]: > 10 µM

CCCCCCCCCCCCCCCCNC(=O)[C@@H]1CSC(c2ccc(NC(C)=O)cc2)N1 (some centres unmarked) [ATCAA-1, reference compound]
IC50 ([1]; SRB, 48 h, read-out: IC50 A375 (converted)): 2.1 ± 0.2 µM | IC50 ([2]; SRB, 48 h, read-out: IC50 B16-F1 (converted)): 2.2 ± 0.3 µM | IC50 ([5]; 96 h): 0.4 ± 0.1 µM | IC50 ([7]; 96 h): 1.7 ± 0.1 µM | IC50 [3, 10]: 0.4 to 2.2 µM | IC50 ([6]; 96 h): 1 ± 0.1 µM

COc1cc(NC(=O)c2csc(-c3ccccc3)n2)cc(OC)c1OC [compound 5, 2-Phenyl-N-(3,4,5-trimethoxyphenyl)thiazole-4-carboxamide]
IC50 [1, 8]: > 100 µM | IC50 [2, 9]: > 100 µM | melting point: 157 to 158 °C | antiproliferative activity against melanoma and prostate cancer cell lines, in words [3]: did not show any cytotoxicity
